Source: patent publication EP4711470A1, “METHOD AND KIT FOR EVALUATING ENZYME ACTIVITY” (The University of Tokyo, priority 2023, dated 2025)

Legend:
[1] = test system: NADH:quinone oxidoreductase; experiment: Reactivity of Q-sHMRG with DT-diaphorase and increase in fluorescence; format: biochemical, microorganism; details: 1 µM probe, HEPES buffer pH 7.4, 25°C
Description: Q-sHMRG prepared in Synthesis Example 1 was dissolved to give a final concentration of 1 µM in a HEPES buffer (100 mM, pH 7.4) containing CaCl2 (1 mM), MgCl2 (1 mM), DTT (dithiothreitol, 100 µM), and Triton X-100 (250 µM), and an absorption spectrum was measured. Then, NADH (100 µM) and NADH:quinone oxidoreductase (10 µg/mL, Toyobo, DAD-311) were added, and after incubation at 25°C for 4 hours, an absorption spectrum was measured again. Results are shown in (A) of FIG. 1.
Also, Q-sHMRG prepared in Synthesis Example 1 was dissolved to give a final concentration of 1 µM in a HEPES buffer (100 mM, pH 7.4) containing CaCl2 (1 mM), MgCl2 (1 mM), DTT (dithiothreitol, 100 µM), and Triton X-100 (250 µM), and then NADH at various concentrations and NADH:quinone oxidoreductase (10 µg/mL) were added. After incubation at 25°C for 30 minutes, fluorescence intensity was measured. Results are shown in (B) and (C) of FIG. 1.

[2] = test system: lactate dehydrogenase; experiment: Single-molecule coupled assay of lactate dehydrogenase oxidative activity in human plasma (microchamber array); format: biochemical; details: for S/N ratio compared with SiRWST-3 or Q-dsAMC as fluorescent probe: same experiment, with SiRWST-3, 100 µM 1-MeO-PMS in place of NADH:quinone oxidoreductase
Description: To a HEPES buffer (100 mM, pH 7.4) containing CaCl2 (1 mM), MgCl2 (1 mM), DTT (dithiothreitol, 100 µM), and Triton X-100 (200 µM), Q-sHMRG (30 µM), Q-HMRG (30 µM) or resazurin (30 µM), lactate (1 mM), NAD^+ (oxidized nicotinamide adenine dinucleotide, 500 µM), and NADH:quinone oxidoreductase (50 µg/mL, Toyobo, DAD-311) were added. Then, plasma obtained from a healthy human subject was added to give a 3000-fold dilution (preparation step, Step (A)). 40 µL of the solution (a pre-encapsulation aqueous solution) thus prepared was introduced into a microchamber array Simoa (registered trademark) disk (Quanterix). Subsequently, 80 µL of Fluorinert (registered trademark) FC-70 (Sigma-Aldrich) as a hydrophobic solvent was introduced into the microchamber array to remove an aqueous solution not introduced into wells, and thereby W/O droplets were formed in wells. After incubation at room temperature for 3 hours (reaction step, Step (B)), fluorescence images were acquired by an epifluorescence microscope Ti2 (Nikon) equipped with a 20× objective lens (Plan Apo 20×), an sCMOS camera (ORCA-Fusion C14440, Hamamatsu Photonics), a white light unit (X-Cite Xylis, Opto Science), and a motorized stage (fluorescence measurement step, Step (C)).

[3] = Fluorescence characteristics of reduction products; details: may be values measured in PBS at pH 7.4
Description: These fluorescence characteristics may be values measured, for example, in phosphate-buffered saline (PBS) at pH 7.4.

fluorescence intensity increased by a reduction reaction by NADH:quinone oxidoreductase ([1]; NADH, NADH:quinone oxidoreductase 10 µg/mL (DAD-311)) [fold] | lowest quantity of NADH that the combination of probe and NADH:quinone oxidoreductase can detect ([1]; NADH:quinone oxidoreductase 10 µg/mL, 30 minutes) [µM] | ratio (S/N ratio) of fluorescence intensity of a well encapsulating lactate dehydrogenase to a well not encapsulating it ([2]; 30 µM probe, lactate 1 mM, NAD+ 500 µM, plasma 3000-fold dilution, 3 hours, compared among Q-sHMRG, Q-HMRG and resazurin) | S/N ratio compared with SiRWST-3 or Q-dsAMC as fluorescent probe [2] | molar extinction coefficient ([3]; at maximum absorption wavelength) [L/mol/cm] | fluorescence quantum yield [3] | mathematical product of molar extinction coefficient and fluorescence quantum yield [3] | maximum absorption wavelength [3] [nm] | maximum fluorescence wavelength [3] [nm] | Compound
235 | 0.01 | greater | larger |  |  |  |  |  | CC1=C(C)C(=O)C(C(C)(C)CC(=O)Nc2ccc3c(c2)Oc2cc(N)ccc2C32OCc3ccc(S(=O)(=O)O)cc32)=C(C)C1=O (stereo not shown) [Q-sHMRG]
 |  |  | larger |  |  |  |  |  | O=c1ccc2[n+]([O-])c3ccc(O)cc3oc-2c1 [resazurin, reference compound]
 |  |  |  | 80000 | 0.92 | 74000 | 498 | 517 | N=c1ccc2c(-c3ccc(S(=O)(=O)O)cc3CO)c3ccc(N)cc3oc-2c1 [sHMRG, 3',6'-diamino-3H-spiro[isobenzofuran-1,9'-xanthene]-5/6-sulfonic acid]
